From patent US20250376481A1, “POLYCYCLIC CARBAMOYL PYRIDONE DERIVATIVE, PREPARATION METHOD THEREFOR AND PHARMACEUTICAL COMPOSITION THEREOF” (NANJING AIDEA PHARMACEUTICAL TECHNOLOGY CO., LTD., priority 2021, published 2025)

Columns and labels:
in vivo = assay: in vivo; parameters: species or system Crab-eating macaques (Macaca fascicularis); details: male, cynomolgus monkey, po
Protocol: Crab-eating macaques were used as test animal, the LC-MS/MS was used to determinate the drug concentration at different times in the plasma of crab-eating macaques, who had been administered with compound 1 via gavage (PO). The pharmacokinetic behaviors of compounds of present disclosure in crab-eating macaques were studied and their pharmacokinetic characteristics were evaluated.
Crab-eating macaques (Macaca fascicularis), common grade, male, approximately 2.5-4 years old, 2-5 kg weight, 3 in each group.
Compound 1 and a solid substrate (hydroxypropyl methylcellulose acetate succinate) are dissolved in an organic solvent, and the solvent was removed by heating evaporation, or removed by a spray dryer to obtain compound 1 loaded on the solid substrate.
Compound 1 loaded on the solid substrate, which was obtained according to the above steps, was slowly added to a suitable container with approximately 80% final volume of vehicle while stirring. Stirred until it is visually uniform, and if necessary, the formulation shall be subjected to ultrasonic treatment. Vehicle was added to give the desired concentration. The obtained formulation shall be consecutively stirred until a visually uniform formulation was obtained, and if necessary, the formulation shall be subjected to ultrasonic treatment. The administration concentration with 20 mg/mL API concentration was prepared, and the preparation method for above vehicle was: approximately 30% total volume of purified water was added to an suitable container, and heated up to approximately 80° C.-90° C., the required volume of Tween 80 was added slowly to the container, while stirred until visually uniform. Purified water was added to the final volume. Stirred until a visually uniform solution was obtained.
Crab-eating macaques were fast overnight and given free access to water. […] Feeding was resumed 2 hours after administration.
For crab-eating macaques administered by gavage, 20 μL blood were collected from the veins in hind limb before administration and 0.25, 0.5, 1, 2, 4, 8, 24, 48, 72 and 96 hours after administration, respectively, and placed in EDTA-K2 anticoagulant blood collection tubes, and then the blood would be placed on ice until centrifuged to obtain plasma samples. The plasma samples were centrifuged at 4° C. (3500 rpm, 10 min), and after separation, the plasma samples were transferred to EP tubes and stored at −80° C. for detection.
The level of tested compounds in the plasma of crab eating macaques, who had been orally administrated with different concentrations of drug were determinated: 10 μL macaque blood at each time point after administration was taken, 100 μL methanol containing an internal standard (100 ng/mL) was added, vortex mixed for 1 minute, centrifuged at 4° C. (12000 rmp, 5 minutes), and 1 μL supernatant was taken from the plasma samples for LC-MS/MS analysis.

HIV-1 integrase = HIV-1 integrase (Human immunodeficiency virus type 1 group M subtype B, UniProt P04585); assay: Integrase activity test (HIV-1 Integrase Assay Kit EZ-1700)
Protocol: A non-radioactive assay method, an integrase assay kit, was used to measure integrase activity quantitatively.
Each component was prepared according to the instructions of the kit; preparation of test sample, 5 mM DMSO solution was prepared for backup, working solution was prepared according to the initial final concentration determined at the time of method establishment, with a 4-fold gradient dilution and 10 concentrations.
• (1) The working solution of sample was prepared according to the initial concentration determinated during the methodology establishment process; • (2) Reagents were prepared according to the methods provided in the kit; • (3) DS DNA coating—blocking—addition of integrase solution—addition of sample—addition of TS DNA—addition of HRP antibody-addition of TMB peroxidase substrate—TMB termination reaction-detection of light absorption value at 450 nm.
The software Graphpad Prism 8.0 was applied and the calculation equation of Log (inhibitor) vs. response variable slope was used to fit the IC50 curve.

`C[C@H]1N2C(=O)c3c(O)c(=O)c(C(=O)NCc4ccc(F)cc4F)cn3C[C@@H]2OCC12CC2` [Compound 1] gave an AUC(0-inf) (in vivo; 30 mg/kg) of 23100 ± 3840 ng·h/mL, an AUC(0-t) (in vivo; 30 mg/kg) of 22900 ± 3810 ng·h/mL and a Cmax (in vivo; 30 mg/kg) of 1800 ± 534 ng/mL. The MRT (in vivo; 30 mg/kg) was 14.1 ± 2.68 h, the Tmax (in vivo; 30 mg/kg) was 4 h and the half-life (in vivo; 30 mg/kg) was 15.7 ± 5.49 h. It also gave an AUC(0-inf) (in vivo; 100 mg/kg) of 164000 ng·h/mL, an AUC(0-t) (in vivo; 100 mg/kg) of 140000 ± 44200 ng·h/mL and a Cmax (in vivo; 100 mg/kg) of 4040 ± 871 ng/mL. The MRT (in vivo; 100 mg/kg) was 26.9 h, the Tmax (in vivo; 100 mg/kg) was 18.7 ± 25.4 h and the half-life (in vivo; 100 mg/kg) was 19.8 ± 4.78 h. It also gave an IC50 (HIV-1 integrase) of 9.19 nM.
